The target in assay [1] is T1, Metallo-L1 β-lactamase (Stenotrophomonas maltophilia, UniProt B2FTM1). In words: nitrocefin hydrolysis inhibition assay, absorbance at […] nm, positive control. It counts as biochemical.
The target in assay [2] is T1, Metallo-L1 β-lactamase. In words: nitrocefin hydrolysis inhibition assay, absorbance at […] nm, […] enzyme. The format is biochemical.

Structures are written as SMILES.

The IC50 is the point on the concentration scale where inhibition reaches its midpoint. A higher IC50 goes with weaker potency.

T1 sequence (B2FTM1 22-290): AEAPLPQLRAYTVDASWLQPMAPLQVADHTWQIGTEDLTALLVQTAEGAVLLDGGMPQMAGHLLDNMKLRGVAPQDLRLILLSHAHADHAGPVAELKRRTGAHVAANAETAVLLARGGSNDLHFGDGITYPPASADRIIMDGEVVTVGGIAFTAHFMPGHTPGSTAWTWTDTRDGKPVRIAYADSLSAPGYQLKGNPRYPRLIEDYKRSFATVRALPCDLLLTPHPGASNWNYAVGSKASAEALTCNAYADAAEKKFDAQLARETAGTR

Consider `O=C(O)CN(CCN(CC(=O)O)CC(=O)O)CC(=O)O` [EDTA], for which, at Metallo-L1 β-lactamase [1], the IC50 stood at 2.24 µM.
Compound `Oc1c2ccccc2cc2cnc3ccccc3c12` [Benzo[j]phenanthridin-12-ol] displayed an IC50 at Metallo-L1 β-lactamase [2] of 23 µM.

The values above are taken from PMC12054212 (BMC Microbiology, 2025).
